Reference: EP3031809A1, “2-phenyl-7,7a-dihydro-3aH-pyran[3,4-d]oxazol-6(4H)-ones” (CONSEJO SUPERIOR DE INVESTIGACIONES CIENTIFICAS, priority 2014, dated 2016)

Key:
BT-474 = test: Cell viability (cytotoxicity) assay with MTT; assay type: cell-based; settings: for TOXICITY 1uM BT-474 (% viab. approx .): approximate viability percentage
Description: (§1) In order to determine the toxicity of the compound, cell viability assays were performed with MTT on breast tumour lines MCF-7, BT-474 and MDA-MB-436. […] The fact that cell viability was not affected at a high concentration reflects the low toxicity of the compound at the dose required for its effectiveness in functional assays.

MCF-7 [1] = test: Cell viability (cytotoxicity) assay with MTT; assay type: cell-based; settings: for TOXICITY 1uM MCF-7 (% viab. approx .): approximate viability percentage
Description: as §1

MCF-7 [2] = test: Sphere test (formation of tumour mammospheres); assay type: cell-based; parameters: ACTIVITY IN SPHERE TEST % sphere formation MCF-7: concentration or dose not given beside the values; settings: for ACTIVITY IN SPHERE TEST % sphere formation MCF-7: MCF-7 mammospheres, 7 days in suspension culture
From the text: (§2) The formation of spheres derived from breast tumours has been described as an effective method for enrichment of cell cultures in CSCs because of the higher ability of cells derived from these culture in generating tumours in vivo when transplanted in immunocompromised mice (Ponti D, et al., (2005) Cancer Res 65(13):5506-11, 34). A directly proportional relationship is therefore established between the percentage of the CSCs subpopulation in the culture and the ability to form spheres. Tumour cell lines growing in suspension are used in these tests in order to enrich the culture in tumour stem cells. CSCs are the only cells capable of proliferating in these conditions, giving rise to structures named spheres. In fact, the cells that grow in suspension acquire the properties of tumour stem cells and are used in the assays used in this patent for identifying drugs effective against them. In principle, compounds that affect tumour stem cells should slow their growth and potentially cause their death. This assay is tuned for breast cancer cell lines according to Leis, O., et al (2012), Oncogene, 31, 1354-1365. Cells are seeded at a density of 1,000 cells/mL on 6-well plates, previously treated with poly-HEMA (poly(2-hydroxyethyl methacrylate)), Sigma-Aldrich) to prevent the cells adhering to the plastic of the plate. A DMEM high glucose medium supplemented with F12 (Nutrient Mixture F-12 HAM, Sigma), B27 (B27 Supplement 50X, Gibco 17504-044) and growth factors, EGF and bFGF is used for culture. Methylcellulose at a final concentration of 0.5% was added to increase the viscosity of the culture medium. Cells were incubated for 7 days at 37° C, adding growth factors (20 ng/mL of each factor), every two days and counted under a microscope.

BT474 = test: Sphere test (formation of tumour mammospheres); assay type: cell-based; parameters: ACTIVITY IN SPHERE TEST % sphere formation BT474: concentration or dose not given beside the values; settings: for ACTIVITY IN SPHERE TEST % sphere formation BT474: BT474 mammospheres, 7 days in suspension culture
From the text: as §2

MDA-MB-436 [3] = test: Sphere test (formation of tumour mammospheres); assay type: cell-based; settings: for ACTIVITY IN SPHERE TEST % sphere formation MDA-MB-436: MDA-MB-436 mammospheres, 7 days in suspension culture
From the text: as §2

MDA-MB-436 [4] = test: Cell viability (cytotoxicity) assay with MTT; assay type: cell-based; settings: 1µM and tenfold higher dose
Description: as §1

HIF = test: HRE-LUC test (9XHRE-LUC luciferase reporter of HIF activity in a breast tumour line); assay type: cell-based, human; settings: for inhibition at 5 µM: Homo sapiens, inhibition percentage, read-out: HIF HRE-LUC (% inhib. 5µM)
From the text: In order to identify direct inhibitors of HIF activity, a breast tumour line MCF7 was first constructed containing the deoxyribonucleic acid sequences (DNA) of the region located between the positions -985 and -951 of the human vascular endothelium growth factor (hVEGF), repeated nine times (X9) and fused to the luciferase reporter gene (LUC) (Moreno-Manzano V, et al (2010) JBC 285 (2) 1333-1342). This plasmid called 9XHRE-LUC, kindly given by Dr Manuel Ortiz de Landazuri of the La Princesa Hospital of Madrid, was prepared using a commercial kit (Endofree Maxi-Prep; Qiagen, Inc., Valencia, CA). Transfections were performed with Lipofectamine (Invitrogen) according to the manufacturer's instructions.

SOX-2 = test: Reporter of the promoter region of enhancer R1 of SOX-2 in a transiently transfected breast tumour line; assay type: cell-based; settings: breast tumour line MDA_MB-436 / HRE9X-LUC; cells cultivated in suspension; Fig. 2
From the text: In order to identify whether the direct inhibitors of mammosphere formation and HIF activity inhibited the transcriptional activation of SOX2, reported in breast cancer CSCs (Leis, O., et al (2012), Oncogene, 31, 1354-1365), breast tumour lines were constructed, transiently transfected with the promoter region of enhancer R1 of SOX-2 by Lipofectamine (Invitrogen) according to the manufacturer's instructions. Their induction on cultivating the cells in suspension was compared and the inhibition of this activation was measured on treating the cells with the inhibitor IQM11PS04.

Row | Structure (SMILES) | TOXICITY 1uM BT-474 (% viab. approx .) (BT-474) [%] | TOXICITY 1uM MCF-7 (% viab. approx .) (MCF-7 [1]) [%] | ACTIVITY IN SPHERE TEST % sphere formation MCF-7 (MCF-7 [2]) [%] | ACTIVITY IN SPHERE TEST % sphere formation BT474 (BT474) [%] | ACTIVITY IN SPHERE TEST % sphere formation MDA-MB-436 (MDA-MB-436 [3]) [%] | percentage of cell death in treated cultures (BT-474; 1µM and tenfold higher dose, BT-474) | percentage of cell death in treated cultures (MCF-7 [1]; 1µM and tenfold higher dose, MCF-7) | percentage of cell death in treated cultures (MDA-MB-436 [4]) | action on HIF-2α (HIF; 1µM and tenfold higher dose) | inhibition at 5 µM (HIF) [%] | inhibition in the expression of luciferase (HRE-LUC test) (HIF; increasing concentrations, Fig. 1) | inhibition of the induction of SOX2 (expression of the promoter region of enhancer R1 of SOX-2) (SOX-2) | inhibitory ability in the formation of mammospheres (MCF-7 [2]; 1 µM added in the final stage of sphere formation, MCF7, versus DMSO) | inhibitory ability in the formation of mammospheres (MDA-MB-436 [3]; 1 µM added in the final stage of sphere formation, MDA-MB-436, versus DMSO) | inhibitory ability in the formation of mammospheres (BT474; 1 µM added in the final stage of sphere formation, BT474, versus DMSO)
1 | COc1cccc(C2=NC3COC(=O)CC3O2)c1 (stereo not shown) [IQM11PS01, 2-(3-methoxyphenyl)-7,7a-dihydro-3aH-pyrano[3,4-d]oxazole-6(4H)-one] | 97 | 115 | 0 | 2 |  |  |  |  |  |  |  |  |  |  | 
2 | COc1cc(OC)cc(C2=NC3COC(=O)CC3O2)c1 (stereo not shown) [IQM11PS02, 2-(3,5-dimethoxyphenyl)-7,7a-dihydro-3aH-pyrano[3,4-d]oxazole-6(4H)-one] | 55 | 99 | 0 | 4 |  |  |  |  |  |  |  |  |  |  | 
3 | O=C1CC2OC(c3cc(OCc4ccccc4)cc(OCc4ccccc4)c3)=NC2CO1 (stereo not shown) [IQM11PS03, 2-(3,5-bis(benzyloxy)phenyl)-7,7a-dihydro-3aH-pyrano[3,4-d]oxazole-6(4H)-one] | 97 | 98 | 0 | 12 | 88 |  |  |  |  |  |  |  |  |  | 
4 | CCCOc1cccc(C2=NC3COC(=O)CC3O2)c1 (stereo not shown) [IQM11PS04, 2-(3-propoxyphenyl)-7,7a-dihydro-3aH-pyrano[3,4-d] oxazole-6(4H)-one] | 89 | 109 | 0 | 1 |  | did not cause a significant increase | did not cause a significant increase | did not cause a significant increase | significant action | 92 | significantly inhibits | significantly inhibits | significant inhibitory ability | significant inhibitory ability | significant inhibitory ability
5 | CCCCCOc1cccc(C2=NC3COC(=O)CC3O2)c1 (stereo not shown) [IQM11PS05, 2-(3-pentyloxyphenyl)-7,7a-dihydro-3aH-pyrano[3,4-d]oxazole-6(4H)-one] | 168 | 92 | 0 | 8 |  |  |  |  |  | 96 |  |  |  |  | 
6 | O=C1CC2OC(c3cccc(OCCN4CCOCC4)c3)=NC2CO1 (stereo not shown) [IQM11PS06, 2-(3-(2-morpholinoethoxy)phenyl)-7,7a-dihydro-3aH-pyrano[3,4-d]oxazole-6(4H)-one] | 86 | 97 | 20 | 27 | 79 |  |  |  |  |  |  |  |  |  | 
